How the values were obtained:
Assay type in all cases: functional, cell-based
PANC-1 = assay: Antiproliferative activity against human PANC1 cells harboring KRAS G12D mutant assessed as inhibition of cell viability after 24 hrs by MTT assay; details: PANC-1, 24 h
CT26 = assay: Antiproliferative activity against mouse CT26 cells harboring KRAS G12D mutant assessed as inhibition of cell viability after 24 hrs by MTT assay; details: CT26, 24 h
SW1990 = assay: Antiproliferative activity against human SW1990 cells harboring KRAS G12D mutant assessed as inhibition of cell viability after 24 hrs by MTT assay; details: SW1990, 24 h
NCI-H358 = assay: Antiproliferative activity against human NCI-H358 cells harboring KRAS G12C mutant assessed as inhibition of cell viability after 24 hrs by MTT assay; details: NCI-H358, 24 h
HCT-116 = assay: Antiproliferative activity against human HCT-116 cells harboring KRAS G13D mutant assessed as inhibition of cell viability after 24 hrs by MTT assay; details: HCT-116, 24 h
HeLa = assay: Antiproliferative activity against human HeLa cells harboring wild type KRAS assessed as inhibition of cell viability after 24 hrs by MTT assay

IC50 (PANC-1)	IC50 (CT26)	IC50 (SW1990)	IC50 (NCI-H358)	IC50 (HCT-116)	IC50 (HeLa)	Structure (SMILES)
> 20 µM	25 µM	> 20 µM				COc1cc(-c2cc3c(N4CC5CCC(C4)N5)ncnc3s2)cc(OC)c1OC
7.7 µM	7.2 µM	5.8 µM	4.5 µM	8 µM	10.5 µM	COc1cc(-c2cc3c(N4CC5CCC(C4)N5)ncnc3s2)cc(C(F)(F)F)c1
12.9 µM	14.7 µM	7.2 µM				Fc1cc(-c2cc3c(N4CC5CCC(C4)N5)ncnc3s2)cc(C(F)(F)F)c1
2.8 µM	12.4 µM	7.7 µM		7.9 µM	11.5 µM	c1ccc(-c2cccc3ccccc23)c(-c2cc3c(N4CC5CCC(C4)N5)ncnc3s2)c1
10.2 µM	14.1 µM	13.3 µM				COc1ccc(-c2cc3c(N4CC5CCC(C4)N5)ncnc3s2)cc1F
> 20 µM	22.6 µM	16.8 µM				COc1ccc(F)cc1-c1cc2c(N3CC4CCC(C3)N4)ncnc2s1
13 µM	15.6 µM	13.4 µM				Fc1ccc(-c2cc3c(N4CC5CCC(C4)N5)ncnc3s2)c(F)c1
9.4 µM	9.7 µM	4.2 µM				FC(F)(F)c1ccc(Cl)c(-c2cc3c(N4CC5CCC(C4)N5)ncnc3s2)c1
11.4 µM	13.8 µM	15.8 µM				Cc1ccc(-c2cc3c(N4CC5CCC(C4)N5)ncnc3s2)c(Cl)c1
24.7 µM	13 µM	15.9 µM				Fc1cc(-c2cc3c(N4CC5CCC(C4)N5)ncnc3s2)ccc1Cl
6.7 µM	8.4 µM	8 µM				COc1ccc(Cl)c(-c2cc3c(N4CC5CCC(C4)N5)ncnc3s2)c1
5.3 µM	6.5 µM	7.7 µM	9.1 µM	8.2 µM	8.8 µM	FC(F)(F)c1cc(Cl)cc(-c2cc3c(N4CC5CCC(C4)N5)ncnc3s2)c1
7.5 µM	7.1 µM	12.1 µM	9.4 µM	9.9 µM	12.5 µM	Clc1ccc(-c2cc3c(N4CC5CCC(C4)N5)ncnc3s2)cc1Cl
> 20 µM	> 20 µM	> 20 µM	0.2 µM	> 20 µM	> 20 µM	C=CC(=O)N1CCN(c2ncnc3c(F)c(-c4c(O)cccc4F)c(Cl)cc23)CC1
6.1 µM	11.8 µM	17.8 µM	21.5 µM	27.3 µM	> 40 µM	Fc1ccc(F)c(-c2cc3c(N4CC5CCC(C4)N5)ncnc3s2)c1
10.1 µM	13.4 µM	5.9 µM				Cc1ccc(-c2cc3c(N4CC5CCC(C4)N5)ncnc3s2)c(C)c1
4.3 µM	6.5 µM	7.7 µM	10.1 µM	15.9 µM	11.3 µM	Clc1ccc(Cl)c(-c2cc3c(N4CC5CCC(C4)N5)ncnc3s2)c1
10.3 µM	6.9 µM	6.2 µM				FC(F)(F)c1ccc(-c2cc3c(N4CC5CCC(C4)N5)ncnc3s2)cc1
16.8 µM	4.4 µM	8.7 µM				O=[N+]([O-])c1ccc(-c2cc3c(N4CC5CCC(C4)N5)ncnc3s2)cc1
7.9 µM	9.8 µM	10.2 µM				COc1ccc(F)c(-c2cc3c(N4CC5CCC(C4)N5)ncnc3s2)c1
4 µM	5.7 µM	4.9 µM	9.4 µM	9.7 µM	8.5 µM	COc1ccc(Cl)cc1-c1cc2c(N3CC4CCC(C3)N4)ncnc2s1
15.2 µM	17 µM	18.8 µM				COc1cccc(F)c1-c1cc2c(N3CC4CCC(C3)N4)ncnc2s1
6.8 µM	7.2 µM	9.2 µM	9.4 µM	4.9 µM	7.7 µM	COc1cc(Cl)ccc1-c1cc2c(N3CC4CCC(C3)N4)ncnc2s1

Structure (SMILES)	IC50 (PANC-1)	IC50 (CT26)	IC50 (SW1990)	IC50 (NCI-H358)	IC50 (HCT-116)	IC50 (HeLa)
c1ccc(-c2cc3c(N4CC5CC(C4)N5)ncnc3s2)cc1	30.5 µM	40.5 µM	40.1 µM			

Reference: ChEMBL document CHEMBL5154793, “Discovery of Thieno[2,3-d]pyrimidine-based KRAS G12D inhibitors as potential anticancer agents via combinatorial virtual screening” (Eur J Med Chem, 2022)
